Key:
KRAS WT = KRAS WT (Homo sapiens, UniProt P01116); test: SOS-catalyzed nucleotide exchange assay, KRAS WT (Procedure A); format: biochemical; conditions: GNE
How it was run: (§1)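 60 min cpd preinc. w/ RAS–Bodipy-GDP–Tb-SA complex; + hSOS/GTP (3 mM final), RT. G12C 3 nM RAS/40 nM SOS; WT, G12D 1 nM/40 nM; 60 min rxn. G13D 1.25 nM, no SOS, 30 min rxn. HEPES pH 7.5, 10 mM MgCl2. Ratio 520/495, norm. to DMSO/max-inhibitor ctrls.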

AsPC-1 cells = molecular target: T1, AsPC-1 cells (Homo sapiens, UniProt P01116, G12D); test: Cellular phospho-ERK assay, AsPC-1 cells (KRAS G12D); format: cell-based; conditions: 2 hours, read-out: AsPC1 pERK IC50
T1 construct: p-ERK/total ERK AlphaSureFire read-out
How it was run: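 Compound was titrated 10-point in 3-fold steps (top 30 μM) on KRAS G12D homozygous pancreatic lines PANC08.13 and AsPC-1 for 2 h at 37 °C. The p-ERK/total ERK ratio was measured by multiplex AlphaLISA SureFire and fitted with a 4-parameter logistic model to give IC50.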

KRAS G12V = KRAS G12V (Homo sapiens, UniProt P01116, G12V); test: SOS-catalyzed nucleotide exchange assay, KRAS G12V (Procedure A); format: biochemical; conditions: GNE
How it was run: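 Biotinylated KRAS G12V was loaded with Bodipy-GDP alongside Terbium-streptavidin to form a TR-FRET complex, which was preincubated with compounds for 60 minutes in 384-well plates. Human SOS protein and unlabeled GTP were then added for 90 minutes, giving final concentrations of 1.25 nM KRAS-G12V, 160 nM SOS and 3 mM GTP. The 520/495 nm emission ratio was read on an Envision.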

KRAS G12D = KRAS G12D (Homo sapiens, UniProt P01116, G12D); test: SOS-catalyzed nucleotide exchange assay, KRAS G12D (Procedure A); format: biochemical; conditions: guanine nucleotide exchange (GNE)
How it was run: as §1

T1 sequence (P01116 1-188 isoform P01116-2 G12D): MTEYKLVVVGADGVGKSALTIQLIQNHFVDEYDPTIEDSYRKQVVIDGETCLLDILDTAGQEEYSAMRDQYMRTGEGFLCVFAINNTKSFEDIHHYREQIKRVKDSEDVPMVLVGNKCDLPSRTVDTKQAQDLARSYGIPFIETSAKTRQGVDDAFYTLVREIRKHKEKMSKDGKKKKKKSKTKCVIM
Sequence of KRAS WT (P01116 with tags, fused parts or gaps isoform P01116-2): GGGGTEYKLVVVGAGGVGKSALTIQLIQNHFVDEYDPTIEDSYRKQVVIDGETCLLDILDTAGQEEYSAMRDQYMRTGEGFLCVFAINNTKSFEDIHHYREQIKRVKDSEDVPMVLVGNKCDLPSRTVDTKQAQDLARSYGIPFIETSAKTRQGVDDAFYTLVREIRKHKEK
Sequence of KRAS G12V (P01116 with tags, fused parts or gaps isoform P01116-2 G12V): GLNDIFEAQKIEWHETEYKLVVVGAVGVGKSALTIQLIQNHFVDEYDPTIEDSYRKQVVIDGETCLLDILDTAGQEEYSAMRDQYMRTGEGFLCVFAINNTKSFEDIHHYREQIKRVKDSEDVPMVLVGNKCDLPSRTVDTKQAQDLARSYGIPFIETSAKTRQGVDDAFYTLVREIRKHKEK
Sequence of KRAS G12D (P01116 with tags, fused parts or gaps isoform P01116-2 G12D): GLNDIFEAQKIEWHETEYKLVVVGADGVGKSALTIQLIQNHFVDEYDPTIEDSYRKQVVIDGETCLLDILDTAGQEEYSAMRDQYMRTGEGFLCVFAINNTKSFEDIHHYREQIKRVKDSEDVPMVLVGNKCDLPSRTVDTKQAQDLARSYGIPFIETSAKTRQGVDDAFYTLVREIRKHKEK

Row | Compound | IC50 (KRAS WT) [nM] | IC50 (AsPC-1 cells) [nM] | IC50 (KRAS G12V) [nM] | IC50 (KRAS G12D) [nM]
1 | F[C@H]1CN2CCC[C@@]2(COc2nc(N3C[C@H]4CC[C@@H](C3)N4)c3c(n2)sc2c(-c4c(C5(F)CC5)c(C(F)(F)F)cc5[nH]ncc45)nccc23)C1 [Ex-79, 4-((1R,5S)-3,8-diazabicyclo[3.2.1]octan-3-yl)-8-(5-(1-fluorocyclopropyl)-6-(trifluoromethyl)-1H-indazol-4-yl)-2-(((2R,7aS)-2-fluorotetrahydro-1H-pyrrolizin-7a(5H)-yl)methoxy)pyrido[4′,3′:4,5]thieno[2,3-d]pyrimidine] | 4810 | 612 | 4490 | 12.3
2 | C#Cc1c(F)ccc2cc3[nH]ncc3c(-c3nccc4c3sc3nc(OCC5(C(=O)NC)CC5)nc(N5C[C@H]6CC[C@@H](C5)N6)c34)c12 [Ex-91, 1-(((4-((1R,5S)-3,8-diazabicyclo[3.2.1]octan-3-yl)-8-(5-ethynyl-6-fluoro-1H-benzo[f]indazol-4-yl)pyrido[4′,3′:4,5]thie-no[2,3-d]pyrimidin-2-yl)oxy)methyl)-N-methylcyclopropane-1-carboxamide] | > 11100 | 5030 | > 11100 | 50.6
3 | Fc1ccc2cc3[nH]ncc3c(-c3nccc4c3sc3nc(OC[C@@]56CCCN5C[C@H](F)C6)nc(N5C[C@H]6CC[C@@H](C5)N6)c34)c2c1 [Ex-57, 4-((1R,5S)-3,8-diazabicyclo[3.2.1]octan-3-yl)-8-(6-fluoro-1H-benzo[f]indazol-4-yl)-2-(((2R,7aS)-2-fluorotetrahydro-1H-pyrrolizin-7a(5H)-yl)methoxy)pyri-do[4′,3′:4,5] thieno[2,3-d]pyrimidine] | 2890 | 299 | 2090 | 23.6
4 | C#Cc1c(F)ccc2cc3[nH]ncc3c(-c3nccc4c3sc3nc(OCC5(C(F)(F)F)CCOCC5)nc(N5C[C@H]6CC[C@@H](C5)N6)c34)c12 [Ex-110, 4-((1R,5S)-3,8-diazabicyclo[3.2.1]octan-3-yl)-8-(5-ethynyl-6-fluoro-1H-benzo[f]indazol-4-yl)-2-((4-(trifluoromethyl)tetrahydro-2H-pyran-4-yl)methoxy)pyrido[4′,3′:4,5]thieno[2,3-d]pyrimidine] | > 11100 | 8280 | > 11100 | 2050
5 | Cc1cc2[nH]ncc2c(-c2nccc3c2sc2nc(N4CCCN(C)CC4C)nc(N4C[C@H]5CC[C@@H](C4)N5)c23)c1C(F)(F)F (stereo partly drawn) [Ex-81, 4-((1R,5S)-3,8-diazabicyclo[3.2.1]octan-3-yl)-2-(2,4-dimethyl-1,4-diazepan-1-yl)-8-(6-methyl-5-(trifluoromethyl)-1H-indazol-4-yl)pyrido[4′,3′:4,5]thieno[2,3-d]pyrimidine] | > 11100 | 6800 | > 11100 | 575

Stronger by IC50 (KRAS WT), values ahead:

Row | IC50 (KRAS WT) [nM] | IC50 (AsPC-1 cells) [nM] | IC50 (KRAS G12V) [nM] | IC50 (KRAS G12D) [nM] | Compound
6 | 772 | 373 | 804 | 3.38 | F/C=C1\CN2CCC[C@@]2(COc2nc(N3C[C@H]4CC[C@@H](C3)N4)c3c(n2)C2(CC2)c2c-3ccnc2-c2c(C3CC3)c(Cl)cc3[nH]ncc23)C1 (single isomer, unassigned) [Ex-116]
7 | 72.9 | 18 | 94.3 | 1.16 | C#Cc1c(F)ccc2cc3[nH]ncc3c(-c3nccc4c3sc3nc(OCC56CCCN5CC(=C(F)F)C6)nc(N5C[C@H]6CC[C@@H](C5)N6)c34)c12 (stereo partly drawn) [Ex-93, 4-((1R,5S)-3,8-diazabicyclo[3.2.1]octan-3-yl)-2-(((S)-2-(difluoromethylene)tetra-hydro-1H-pyrrolizin-7a(5H)-yl)methoxy)-8-(5-ethynyl-6-fluoro-1H-benzo[f]indazol-4-yl)pyrido[4′,3′:4,5] thie-no[2,3-d]pyrimidine]
8 | 225 | 31.8 | 283 | 4.45 | C#Cc1c(F)ccc2cc3[nH]ncc3c(-c3nccc4c3sc3nc(OC[C@@]56CCCN5C[C@H](F)C6)nc(N5C[C@H]6CC[C@@H](C5)N6)c34)c12 [Ex-56]
